Data taken from EP4567035A1, “NOVEL COMPOUND AS HYPOXIA-INDUCIBLE FACTOR 1(HIF-1) INHIBITOR OR VASCULAR ENDOTHELIAL GROWTH FACTOR (VEGF) INHIBITOR, AND PHARMACEUTICAL COMPOSITION COMPRISING SAME” (Nextgen Bioscience Co., Ltd., priority 2022, dated 2024).
pIC50: −log10 of the molar value. Read-outs that look alike come from different tables or passages of the source.

Columns and labels:
HIF-1α = target: T1, HIF-1α (Homo sapiens, UniProt Q16665); experiment: Analysis of HIF-1α protein expression (Western blot) in ARPE-19 cells under mixed hypoxic condition; type: cell-based; conditions: concentration range at which HIF-1α expression is reduced by 50% vs untreated control
T1 construct: endogenous in cells; host or cells: ARPE-19 (ATCC CRL-2302)
Procedure, shortened: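 ARPE-19 cells were pretreated 16 h or 2 h with compound (0.1 nM–10 µM, serum-free DMEM/F12), then held 1 h or 24 h in mixed hypoxia (1% O2 plus CoCl2). HIF-1α was quantified by Western blot against β-actin; the concentration range giving ≥50% reduction vs untreated control was reported.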

VEGF = experiment: Evaluation of VEGF protein secretion level (Human VEGF ELISA) in ARPE-19 cell medium under hypoxic conditions; type: cell-based
Method: ARPE-19 cells (Human retinal pigment epithelial cells, ATCC CRL-2302) were cultured in DMEM/F12 (LM002-08, Welgene) medium containing 10% fetal bovine serum (FBS, 16000-044, Gibco) in an incubator at 37°C with 5% carbon dioxide. When the cells grew sufficiently, they were cultured in experimental culture dishes for protein isolation and medium supernatant acquisition.
Cells were detached from the culture dish using TrypLE™ Express (Gibco). After centrifugation at 1000 rpm for 3 minutes, the supernatant was removed. The cells were counted and seeded into new culture dishes. Normoxic conditions were maintained by culturing the cells in a 37°C incubator with 5% carbon dioxide, and hypoxic conditions were maintained by culturing the cells in a hypoxic incubator with 1% oxygen, 5% carbon dioxide, and 94% nitrogen gas.
The expression of the downstream gene, angiogenesis inducer VEGF, is regulated by HIF-1α, a major transcription factor under hypoxic conditions, and the level of secreted VEGF protein can be quantitatively confirmed through ELISA (Enzyme Linked Immunosorbent Assay, Human VEGF Quantikine ELISA Kit, R&D systems). For this purpose, the following experiment was conducted.
The compounds of each Example were diluted to 0.1 nM, 1 nM, 3 nM, 10 nM, 30 nM, 100 nM, 300 nM, 1 µM and 10 µM in DMEM/F12 medium containing 1% fetal bovine serum, pretreated for 2 hours, and cultured for 24 hours under hypoxic conditions to obtain the cell medium supernatant. The supernatant was centrifuged at 1000 rpm for 3 minutes, and a specific amount was treated with a VEGF ELISA assay kit and the absorbance value was measured at 450 nm to quantitatively confirm the level of VEGF protein (see Table 1 below).
Based on the results of secreted VEGF protein expression levels in cell media treated with compounds diluted at concentrations ranging from 10 µM to 0.1 nM, the concentration range of the compound at which the secreted VEGF protein level was reduced by 50% or less compared to the untreated control group was derived.

[1] = mixed hypoxic condition (1% oxygen + CoCl2) for 1 hour, read-out: IC50 HIF-1α Hypoxia (1 hour)
[2] = ARPE-19 cells, pretreated 2 hours, 24 hours hypoxic conditions, secreted VEGF in medium supernatant by ELISA, concentration range reducing VEGF by 50% vs untreated control, read-out: IC50 VEGF
[3] = values marked * in the table, mixed hypoxic condition (1% oxygen + CoCl2) for 24 hours, read-out: IC50 HIF-1α, Hypoxia(24h)
[4] = ARPE-19 cells, pretreated 2 hours, 24 hours hypoxic conditions, ELISA, read-out: concentration at which the secreted VEGF protein level was suppressed to less than 50%
[5] = Experimental Example 2 (HIF-1α Western blot), read-out: concentration at which the expression level of VEGF was suppressed to less than 50%

T1 sequence (Q16665 whole entry): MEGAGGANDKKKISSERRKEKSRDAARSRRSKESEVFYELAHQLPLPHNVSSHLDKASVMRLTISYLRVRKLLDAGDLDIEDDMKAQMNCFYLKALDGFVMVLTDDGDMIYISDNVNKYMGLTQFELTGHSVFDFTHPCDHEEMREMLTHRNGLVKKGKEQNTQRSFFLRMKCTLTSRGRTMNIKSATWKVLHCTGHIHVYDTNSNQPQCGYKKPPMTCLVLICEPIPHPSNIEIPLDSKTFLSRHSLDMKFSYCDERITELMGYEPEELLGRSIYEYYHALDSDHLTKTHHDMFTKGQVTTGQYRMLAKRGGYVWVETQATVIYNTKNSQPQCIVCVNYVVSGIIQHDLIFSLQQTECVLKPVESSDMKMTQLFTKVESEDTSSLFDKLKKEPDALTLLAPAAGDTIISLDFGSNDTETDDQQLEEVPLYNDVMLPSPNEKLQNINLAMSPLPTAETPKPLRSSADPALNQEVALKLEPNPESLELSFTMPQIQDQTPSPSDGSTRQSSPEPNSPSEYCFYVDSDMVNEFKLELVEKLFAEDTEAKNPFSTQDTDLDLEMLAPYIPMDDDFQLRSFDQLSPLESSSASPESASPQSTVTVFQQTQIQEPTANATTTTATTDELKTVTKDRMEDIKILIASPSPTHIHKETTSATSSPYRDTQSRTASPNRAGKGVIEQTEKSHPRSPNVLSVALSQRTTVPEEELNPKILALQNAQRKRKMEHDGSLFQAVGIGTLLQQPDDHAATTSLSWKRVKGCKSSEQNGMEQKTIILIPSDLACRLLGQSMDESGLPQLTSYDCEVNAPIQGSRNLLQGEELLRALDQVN

DC50 (HIF-1α; [1]) [nM]	pIC50 (VEGF; [2])	DC50 (HIF-1α; [3]) [nM]	pIC50 (VEGF; [4])	pIC50 (VEGF; [5])	Structure (SMILES)
< 100	6.00 to 7.00	–	–	–	O=C(NCc1cc(F)cc(-c2cnn(CC(F)(F)F)c2)c1)c1ncnc2nc(C3CCCC3)[nH]c12 [Example 3, 8-Cyclopentyl-N-(3-fluoro-5-(1-(2,2,2-trifluoroethyl)-1H-pyrazol-4-yl)benzyl)-7H-purine-6-carboxamide]
–	6.00 to 7.00	< 100	–	–	O=C(NCc1cc(F)cc(-c2cnn(-c3cccc(F)c3)c2)c1)c1ncnc2nc(C3CCC(F)(F)C3)[nH]c12 (stereo not shown) [Example 81, 8-(3,3-Difluorocyclopentyl)-N-(3-fluoro-5-(1-(3-fluorophenyl)-1H-pyrazol-4-yl)benzyl)-7H-purine-6-carboxamide]
–	> 7.00	< 100	> 7.00	> 7.00	Cc1cc(-n2cc(-c3cc(F)cc(CNC(=O)c4ncnc5nc(C6CCCC6)[nH]c45)c3)cn2)ccn1 [Example 42, 8-Cyclopentyl-N-(3-fluoro-5-(1-(2-methylpyridin-4-yl)-1H-pyrazol-4-yl)benzyl)-7H-purine-6-carboxamide]
–	6.00 to 7.00	< 100	–	–	O=C(NCc1cc(F)cc(-c2cnn(-c3ccc(F)cc3)c2)c1)c1ncnc2nc(C3CCC(F)C3)[nH]c12 (single isomer, unassigned) [110(A), N-(3-Fluoro-5-(1-(4-fluorophenyl)-1H-pyrazol-4-yl)benzyl)-8-(3-fluorocyclopentyl)-7H-purine-6-carboxamide]
–	> 7.00	< 100	–	–	O=C(NCc1cc(F)cc(-c2cnn(-c3ccc(F)cc3)c2)c1)c1ncnc2nc(C3CCC(F)(F)C3)[nH]c12 (single isomer, unassigned) [84(E1), 8-(3,3-Difluorocyclopentyl)-N-(3-fluoro-5-(1-(4-fluorophenyl)-1H-pyrazol-4-yl)benzyl)-7H-purine-6-carboxamide]
–	< 5.00	100 to 1000	–	–	O=C(NCc1cc(F)cc(N2CCCN(c3ccc(F)cc3)CC2)c1)c1ncnc2nc(C3CCCC3)[nH]c12 [Example 137, 8-Cyclopentyl-N-(3-fluoro-5-(4-(4-fluorophenyl)-1,4-diazepan-1-yl)benzyl)-7H-purine-6-carboxamide]
–	6.00 to 7.00	< 100	–	–	O=C(NCc1cc(F)cc(-c2cnn(-c3ccc(F)cc3)c2)c1)c1ncnc2nc(C3CC4(CC4)C3)[nH]c12 [Example 111, N-(3-fluoro-5-(1-(4-fluorophenyl)-1H-pyrazol-4-yl)benzyl)-8-(spiro[2.3]hexan-5-yl)-7H-purine-6-carboxamide]
–	6.00 to 7.00	< 100	–	–	NC(=O)c1ccc(-n2cc(-c3cc(F)cc(CNC(=O)c4ncnc5nc(C6CCCC6)[nH]c45)c3)cn2)cc1 [Example 53, N-(3-(1-(4-carbamoylphenyl)-1H-pyrazol-4-yl)-5-fluorobenzyl)-8-cyclopentyl-7H-purine-6-carboxamide]
–	< 5.00	100 to 1000	–	–	Cn1ccc(Nc2cc(F)cc(CNC(=O)c3ncnc4nc(C5CCCC5)[nH]c34)c2)c1 [Example 142, 8-Cyclopentyl-N-(3-fluoro-5-((1-methyl-1H-pyrrol-3-yl)amino)benzyl)-7H-purine-6-carboxamide]
–	6.00 to 7.00	< 100	–	–	O=C(NCc1cc(F)cc(-c2cnn(-c3ccc(F)cc3)c2)c1)c1ncnc2nc(C3CCC(F)C3)[nH]c12 (single isomer, unassigned) [110(B), N-(3-Fluoro-5-(1-(4-fluorophenyl)-1H-pyrazol-4-yl)benzyl)-8-(3-fluorocyclopentyl)-7H-purine-6-carboxamide]
–	< 5.00	100 to 1000	–	–	O=C(NCc1cc(F)cc(-n2cc(-c3ccc(F)cc3)nn2)c1)c1ncnc2nc(C3CCCC3)[nH]c12 [Example 116, 8-Cyclopentyl-N-(3-fluoro-5-(4-(4-fluorophenyl)-1H-1,2,3-triazol-1-yl)benzyl)-7H-purine-6-carboxamide]
< 100	6.00 to 7.00	–	–	–	O=C(NCc1cc(F)cc(-c2cnsc2)c1)c1ncnc2nc(C3CCCC3)[nH]c12 [Example 38, 8-Cyclopentyl-N-(3-fluoro-5-(isothiazol-4-yl)benzyl)-7H-purine-6-carboxamide]
–	< 5.00	1000 to 10000	–	–	CN1CCC(Nc2cc(F)cc(CNC(=O)c3ncnc4nc(C5CCCC5)[nH]c34)c2)CC1 [Example 129, 8-Cyclopentyl-N-(3-fluoro-5-((1-methylpiperidin-4-yl)amino)benzyl)-7H-purine-6-carboxamide]
–	> 7.00	< 100	–	–	O=C(NCc1cc(F)cc(-c2cnn(-c3cscn3)c2)c1)c1ncnc2nc(C3CCCC3)[nH]c12 [Example 141, 8-Cyclopentyl-N-(3-fluoro-5-(1-(thiazol-4-yl)-1H-pyrazol-4-yl)benzyl)-7H-purine-6-carboxamide]
–	6.00 to 7.00	100 to 1000	–	–	CS(=O)(=O)c1cc(Br)ccc1-n1cc(-c2cc(F)cc(CNC(=O)c3ncnc4nc(C5CCCC5)[nH]c34)c2)cn1 [Example 59, N-(3-(1-(4-bromo-2-(methylsulfonyl)phenyl)-1H-pyrazol-4-yl)-5-fluorobenzyl)-8-cyclopentyl-7H-purine-6-carboxamide]
–	6.00 to 7.00	< 100	–	–	Cn1cc(-c2cc(F)cc(CNC(=O)c3ncnc4nc(C5CC6CC6C5)[nH]c34)c2)cn1 (stereo not shown) [Example 78, 8-(Bicyclo[3.1.0]hexan-3-yl)-N-(3-fluoro-5-(1-methyl-1H-pyrazol-4-yl)benzyl)-7H-purine-6-carboxamide]
–	> 7.00	< 100	–	–	Cn1cc(-n2cc(-c3cc(F)cc(CNC(=O)c4ncnc5nc(C6CCCC6)[nH]c45)c3)cn2)cn1 [Example 128, 8-Cyclopentyl-N-(3-fluoro-5-(1'-methyl-1'H-[1,4'-bipyrazol]-4-yl)benzyl)-7H-purine-6-carboxamide]
< 100	6.00 to 7.00	–	–	–	COc1ccccc1Nc1cc(F)cc(CNC(=O)c2ncnc3nc(C4CCCC4)[nH]c23)c1 [Example 33, 8-Cyclopentyl-N-(3-fluoro-5-((2-methoxyphenyl)amino)benzyl)-7H-purine-6-carboxamide]
–	> 7.00	< 100	> 7.00	> 7.00	NC(=O)c1cccc(-n2cc(-c3cc(F)cc(CNC(=O)c4ncnc5nc(C6CCCC6)[nH]c45)c3)cn2)c1 [Example 37, N-(3-(1-(3-carbamoylphenyl)-1H-pyrazol-4-yl)-5-fluorobenzyl)-8-cyclopentyl-7H-purine-6-carboxamide]
< 100	6.00 to 7.00	–	–	–	O=C(NCc1cc(F)cc(-c2ccn(-c3ccc(F)cc3)c2)c1)c1ncnc2nc(C3CCCC3)[nH]c12 [Example 52, 8-Cyclopentyl-N-(3-fluoro-5-(1-(4-fluorophenyl)-1H-pyrrol-3-yl)benzyl)-7H-purine-6-carboxamide]
–	< 5.00	100 to 1000	–	–	O=C(NCc1cc(F)cc(NC2CCCC2)c1)c1ncnc2nc(C3CCCC3)[nH]c12 [Example 135, 8-Cyclopentyl-N-(3-(cyclopentylamino)-5-fluorobenzyl)-7H-purine-6-carboxamide]
< 100	5.00 to 6.00	–	–	–	CN1CCC[C@@H]1c1nc2ncnc(C(=O)NCc3cc(F)cc(-c4cnn(C)c4)c3)c2[nH]1 [Example 66, (R)-N-(3-fluoro-5-(1-methyl-1H-pyrazol-4-yl)benzyl)-8-(1-methylpyrrolidin-2-yl)-7H-purine-6-carboxamide]
< 100	6.00 to 7.00	–	–	–	O=C(O)c1ccc(-n2cc(-c3cc(F)cc(CNC(=O)c4ncnc5nc(C6CCCC6)[nH]c45)c3)cn2)cc1 [Example 54, 4-(4-(3-((8-Cyclopentyl-7H-purine-6-carboxamido)methyl)-5-fluorophenyl)-1H-pyrazol-1-yl)benzoic acid]
< 100	6.00 to 7.00	–	–	–	CS(=O)(=O)c1ccc(-n2cc(-c3cc(F)cc(CNC(=O)c4ncnc5nc(C6CCCC6)[nH]c45)c3)cn2)cc1 [Example 28, 8-Cyclopentyl-N-(3-fluoro-5-(1-(4-(methylsulfonyl)phenyl)-1H-pyrazol-4-yl)benzyl)-7H-purine-6-carboxamide]
